Reference: patent US3939157A, “3-Benzyl-7-substituted acetamido-3-cephem-4-carboxylic acids and halogenated benzyl derivatives” (Beecham Group Limited, priority 1972, dated 1976)
Converted amounts (≈) assume the structure as drawn.

Assays:
Assay type in all cases: cell-based
β-haemolytic Strep.CN10 = test: minimum inhibitory concentration (MIC) in agar, β-haemolytic Strep.CN10
Procedure: (§1) The minimum concentrations of this compound required to inhibit growth of five typical Gram-positive bacteria are tabulated below.
(§2) The minimum inhibitory concentrations (MIC) of the free acid (XIV) required to inhibit the growth of five typical Gram-positive bacteria are tabulated below:
(§3) t-Butyl 3-ethyl-7-(2-thienylacetamido)-3-cephem-4-carboxylate (23 mg) was treated with trifluoracetic acid at room temperature for 1 hour. The excess trifluoroacetic acid was distilled off azeotropically with dry benzene to give the free acid (XVII) as a gum (17 mg) .nu.max (CHCl3) 1770, 1705, 1680 cm^^-1 The minimum inhibitory concentrations of this compound required to inhibit the growth of five typical Gram-positive bacteria are tabulated below:
(§4) The cephem ester (XX) (28 mg) was dissolved in trifluoroacetic acid (0.8 ml) and allowed to stand at room temperature for 30 min.

Staph.aureus Russell = test: minimum inhibitory concentration (MIC) in agar, Staph.aureus Russell; details: Staphylococcus aureus
Procedure: as §1, §2, §3, §4

B.subtilis = test: minimum inhibitory concentration (MIC) in agar, B.subtilis; details: Bacillus subtilis
Procedure: as §1, §2, §3, §4

Strep.pneumoniae CN33 = test: minimum inhibitory concentration (MIC) in agar, Strep.pneumoniae CN33; details: Streptococcus pneumoniae
Procedure: as §1, §2, §3, §4

Staph.aureus Oxford = test: minimum inhibitory concentration (MIC) in agar, Staph.aureus Oxford; details: Staphylococcus aureus
Procedure: as §1, §2, §3, §4

Structure (SMILES) | MIC (β-haemolytic Strep.CN10) | MIC (Staph.aureus Russell) | MIC (B.subtilis) | MIC (Strep.pneumoniae CN33) | MIC (Staph.aureus Oxford)
O=C(O)CSCC(=O)NC1C(=O)N2C(C(=O)O)=C(Cc3ccc(F)cc3)CSC12 (stereo not shown) [XIV, 3-p-fluorobenzyl-7-carboxymethylthioacetamido-3-cephem-4-carboxylate] | 25 mg/L (≈ 56.8 µM) | 50 mg/L (≈ 114 µM) | 100 mg/L (≈ 227 µM) | 25 mg/L (≈ 56.8 µM) | 5 mg/L (≈ 11.4 µM)
O=C(Cc1cccs1)NC1C(=O)N2C(C(=O)O)=C(CCc3ccccc3)CS[C@H]12 (stereo partly drawn) [XXVI, 3-β-phenylethyl-7-(2-thienylacetamido) -3-cephem-4-carboxylic acid] | 0.02 mg/L (≈ 0.0467 µM) | 1.5 mg/L (≈ 3.5 µM) | 0.05 mg/L (≈ 0.117 µM) | 0.15 mg/L (≈ 0.35 µM) | 0.05 mg/L (≈ 0.117 µM)
CCC1=C(C(=O)O)N2C(=O)C(NC(=O)Cc3cccs3)[C@H]2SC1 (stereo partly shown) [XVII, 3-ethyl-7-(2-thienylacetamido)-3-cephem-4-carboxylic acid] | 2.5 mg/L (≈ 7.09 µM) | 2.5 mg/L (≈ 7.09 µM) | 2.5 mg/L (≈ 7.09 µM) | 2.5 mg/L (≈ 7.09 µM) | 2.5 mg/L (≈ 7.09 µM)
O=C(Cc1cccs1)NC1C(=O)N2C(C(=O)O)=C(Cc3ccccc3)CSC12 (stereo not shown) [VI] | 0.2 mg/L (≈ 0.482 µM) | 10 mg/L (≈ 24.1 µM) | 0.2 mg/L (≈ 0.482 µM) | 0.2 mg/L (≈ 0.482 µM) | 0.05 mg/L (≈ 0.121 µM)
O=C(Cc1cccs1)NC1C(=O)N2C(C(=O)O)=C(Cc3ccc(F)cc3)CS[C@H]12 (stereo partly shown) [XII, 3-p-fluorobenzyl-7-(2-thienylacetamido)-3-cephem-4-carboxylic acid] | 0.25 mg/L (≈ 0.578 µM) | 10 mg/L (≈ 23.1 µM) | 0.5 mg/L (≈ 1.16 µM) | 0.25 mg/L (≈ 0.578 µM) | 0.25 mg/L (≈ 0.578 µM)
N[C@@H](C(=O)NC1C(=O)N2C(C(=O)O)=C(Cc3ccccc3)CS[C@H]12)c1ccccc1 (stereo partly drawn) [VII; R = H, 3-Benzyl-7-[D-α-aminophenylacetamido]-3-cephem-4-carboxylic acid] | 0.1 mg/L (≈ 0.236 µM) | 2.5 mg/L (≈ 5.9 µM) | 0.25 mg/L (≈ 0.59 µM) | 1 mg/L (≈ 2.36 µM) | 0.1 mg/L (≈ 0.236 µM)
COC(=O)C1=C(Cc2ccccc2)CS[C@@H]2C(NC(=O)COc3ccccc3)C(=O)N12 (stereo partly shown) [II, Methyl 3-benzyl-7-phenoxyacetamido-3-cephem-4-carboxylate] | 1.95 mg/L (≈ 4.45 µM) | 15.6 mg/L (≈ 35.6 µM) | 1.95 mg/L (≈ 4.45 µM) | 0.98 mg/L (≈ 2.23 µM) | 0.98 mg/L (≈ 2.23 µM)
O=C(Cc1cccs1)NC1C(=O)N2C(C(=O)O)=C(CC3CCCCO3)CS[C@H]12 (stereo partly shown) [XXII, 3-(2-tetrahydropyranylmethyl)-7-(2-thienylacetamido)-3-cephem-4-carboxylicacid] | 0.25 mg/L (≈ 0.592 µM) | 10 mg/L (≈ 23.7 µM) | 0.5 mg/L (≈ 1.18 µM) | 0.25 mg/L (≈ 0.592 µM) | 0.25 mg/L (≈ 0.592 µM)
